In patent publication US6949566B2, “Thiazole and oxazole derivatives” (Shionogi & Co. Ltd., priority 2000, dated 2005) one finds IC50 data, which are given here for 16 compounds.

The structures appear in SMILES notation.

Common to all, as to assay type: biochemical
The target in one experiment is T1, MMP-2 (Homo sapiens, UniProt P08253).
T1 construct: purchased Calbiochem-Novabiochem International, Inc
T1 sequence (P08253 110-660): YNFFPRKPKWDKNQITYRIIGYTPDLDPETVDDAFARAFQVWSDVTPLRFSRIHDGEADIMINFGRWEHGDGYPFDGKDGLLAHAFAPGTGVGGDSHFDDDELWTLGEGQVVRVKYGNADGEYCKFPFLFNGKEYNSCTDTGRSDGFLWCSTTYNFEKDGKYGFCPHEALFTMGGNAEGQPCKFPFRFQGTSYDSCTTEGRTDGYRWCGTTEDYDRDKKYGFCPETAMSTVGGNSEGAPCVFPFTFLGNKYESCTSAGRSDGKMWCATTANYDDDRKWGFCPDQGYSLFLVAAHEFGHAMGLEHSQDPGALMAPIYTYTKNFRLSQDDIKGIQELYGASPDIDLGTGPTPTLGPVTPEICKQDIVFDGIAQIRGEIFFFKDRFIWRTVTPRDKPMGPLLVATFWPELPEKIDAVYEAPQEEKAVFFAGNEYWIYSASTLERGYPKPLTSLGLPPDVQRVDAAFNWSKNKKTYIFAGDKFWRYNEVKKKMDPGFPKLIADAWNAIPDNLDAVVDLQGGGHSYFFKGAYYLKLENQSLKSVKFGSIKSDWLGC
As to the kind of experiment: Assay for inhibitory activities on MMPs (fluorogenic peptide substrate), MMP-2. The conditions noted are these: purchased MMP-2; substrate MOCAc-Pro-Leu-Gly-Leu-A2Pr(DNP)-Ala-Arg-NH2. As for the experimental part: MMP-2 was purchased from Calbiochem-Novabiochem International, Inc.
(§1) The enzymatic activity on MMPs was analyzed by the method described in “C. Graham Knight, Frances Willenbrock and Gillian Murphy: A novel coumarin-labelled peptide for sensitive continuous assays of the matrix metalloproteinases: FEBS LETT., 296, (1992), 263-266”. The substrate MOCAc-Pro-Leu-Gly-Leu-A2Pr(DNP)-Ala-Arg-NH2 was purchased from Peptide Institute, Inc., Osaka, Japan. The measurement of the inhibitory activities (IC50) was carried out by the following four methods;
(§2) (A) Reaction with substrate, enzyme (MMPs) and inhibitor
(§3) (B) Reaction with substrate and inhibitor, without enzyme
(§4) (C) Reaction with substrate and enzyme (MMPs), without inhibitor
(§5) (D) Reaction with substrate only
(§6) IC50 values were calculated by using the following formula and each fluorescence values of above four methods (A to D). % inhibition={1−(A−B)/(C−D)}×100 IC50 means the concentration required to inhibit 50% of the enzyme activity.

In another experiment the target is T2, MMP-8 (Homo sapiens, UniProt P22894).
T2 construct: catalytic domain (^99Phe˜^262Gly) was amplified with PCR; His-tag; enterokinase digestion-site; made in house; host or cells: Escherichia coli
T2 sequence (P22894 99-262): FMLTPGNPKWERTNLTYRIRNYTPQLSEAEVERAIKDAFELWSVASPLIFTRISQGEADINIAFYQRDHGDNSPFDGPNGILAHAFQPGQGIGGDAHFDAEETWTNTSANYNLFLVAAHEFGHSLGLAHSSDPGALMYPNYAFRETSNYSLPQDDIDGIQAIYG
As to the kind of experiment: Assay for inhibitory activities on MMPs (fluorogenic peptide substrate), MMP-8. The conditions noted are these: catalytic domain 99Phe-262Gly; substrate MOCAc-Pro-Leu-Gly-Leu-A2Pr(DNP)-Ala-Arg-NH2.
Excerpt: In regard to MMP-8, catalytic domain (^99Phe˜^262Gly) was amplified with PCR using commercial available Human Bone Marrow cDNA. This was cloned in Escherichia. coli expression vector pTrc99AHE inserted with His-tag sequence and enterokinase digestion-site, induced and expressed by IPTG (Isopropyl-β-D-thiogalactopyranoside) and expressed in a insoluble fraction (Thau F. Ho, M. Walid Qoronfleh, Robert C. Wahl, Trica A. Pulvino, Karen J. Vavra, Joe Falvo, Tracey M. Banks, Patricia G. Brake and Richard B. Ciccarelli: Gene expression, purification and characterization of recombinant human neutrophil collagenase. Gene 146, (1994) 297-301, Prepared by the a improved method of this material). Isolation of MMP-8 from an insoluble fraction was carried out by dissolving in modifier (6M urea) by a usual method and purification with metal chelate chromatography. And then removing modifier (6M urea) with dialysis and refolding of the enzyme spontaneously gave activated MMP-8.
as §1, §2, §3, §4, §5, §6

Another experiment deals with T3, MMP-9 (Homo sapiens, UniProt P14780).
T3 construct: endogenous in cells; host or cells: HT1080 human fibrosarcoma cells, TPA-stimulated; enzyme purified from conditioned medium
T3 sequence (P14780 107-707 limits assumed): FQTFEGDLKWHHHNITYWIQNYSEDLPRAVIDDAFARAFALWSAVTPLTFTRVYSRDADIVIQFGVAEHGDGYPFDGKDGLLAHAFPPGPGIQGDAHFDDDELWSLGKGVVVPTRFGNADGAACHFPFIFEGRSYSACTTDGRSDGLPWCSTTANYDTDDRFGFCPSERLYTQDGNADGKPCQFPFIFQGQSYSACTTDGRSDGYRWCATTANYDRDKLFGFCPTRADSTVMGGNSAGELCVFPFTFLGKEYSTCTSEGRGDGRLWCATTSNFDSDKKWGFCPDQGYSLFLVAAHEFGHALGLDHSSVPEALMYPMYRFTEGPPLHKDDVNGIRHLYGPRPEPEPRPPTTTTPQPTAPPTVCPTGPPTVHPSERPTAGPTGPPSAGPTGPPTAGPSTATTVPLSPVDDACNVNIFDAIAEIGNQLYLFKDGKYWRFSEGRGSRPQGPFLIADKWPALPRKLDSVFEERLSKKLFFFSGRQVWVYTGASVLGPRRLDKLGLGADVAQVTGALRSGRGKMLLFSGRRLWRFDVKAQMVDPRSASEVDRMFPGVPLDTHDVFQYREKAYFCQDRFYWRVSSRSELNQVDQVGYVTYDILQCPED
The experiment can be described thus: Assay for inhibitory activities on MMPs (fluorogenic peptide substrate), MMP-9. The conditions noted are these: MMP-9 from HT1080 cells, activated by TPCK-Trypsin; substrate MOCAc-Pro-Leu-Gly-Leu-A2Pr(DNP)-Ala-Arg-NH2.
Excerpt: MMP-9 was isolated and purified by procedures described in as follows: Yasunori Okada, Yukio Gonoji, Katsumi Naka, Katsuro Tomita, Isao Nakanishi, Kazushi Iwata, Kyoko Yamashita, and Taro Hayakawa: Matrix metalloproteinase 9 (92-kDa gelatinase/type IV collagenase) from HT1080 human fibrosarcoma cells. Purification and activation of the precursor and enzymic properties J. Biol. Chem., 1992, 267 21712-21719, in combination with others: 1)Yasunori Okada, Tatsuhisa Morodomi, Jan J, Enghild, ko Suzuki, Atsushi Yasui, Isao Nakanishi, Guy Salvesen and Hideaki Nagase: Matrix metalloproteinase 2 from human rheumatoid synovial fibroblasts. Purification and activation of the precursor and enzymic properties. Eur. J. Biochem. 1990, 194 721-730; 2)Robin V Ward, Rosalind M Hembry, John J Reynolds and Gillian Murphy: The purification of tissue inhibitor of metalloproteinase-2 from its 72 kDa progelatinase complex. Biochem. J. 1991 278 179-187. In detail, human fibrosarcoma ATCC HT1080 cell line was cultured to confluent in Dulbecco's Modified Medium (DMEM) containing 10% fetal-calf serum at 37° C. for 48 hours. Subsequently, the medium of confluent culture was changed to serum-free DMEM medium. To obtain MMP-9, Phorbol-12-myristate-13-acetate (TPA) must be added to this serum-free DMEM medium at a concentration of 50 ng/ml. The TPA treated medium was centrifuged at 3000 rpm for 15 min and the supernatant was concentrated to 450 ml by a Toyo-Roshi UP-20 apparatus with an ultrafiltration membrane. Then, proMMP-9 in this concentrated solution was purified by using columns of Gelatin-Sepharose and Concanavalin A-Sepharose. The pool containing proMMP-9 was dialyzed, concentrated (Toyo-Roshi UP-20) and applied to columns of Sephacryl S-200 and Green A matrix for the separation from TIMPs. The obtained proMMP-9 fraction was activated by TPCK-Trypsin (Final conc. 3 μg/501 μl React Mix.).
as §1, §2, §3, §4, §5, §6

The target of a further experiment is T4, MMP-12 (Homo sapiens, UniProt P39900).
T4 construct: catalytic domain(^100Phe˜^263Gly) was amplified with RT-PCR; His-tag; enterokinase digestion-site; made in house; host or cells: Escherichia coli
T4 sequence (P39900 100-263): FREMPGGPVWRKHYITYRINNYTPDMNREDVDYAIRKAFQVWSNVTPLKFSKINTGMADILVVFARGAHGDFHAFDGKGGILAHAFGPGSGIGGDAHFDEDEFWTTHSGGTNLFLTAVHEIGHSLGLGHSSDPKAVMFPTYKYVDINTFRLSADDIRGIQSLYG
As to the kind of experiment: Assay for inhibitory activities on MMPs (fluorogenic peptide substrate), MMP-12. As to conditions: catalytic domain 100Phe-263Gly; substrate MOCAc-Pro-Leu-Gly-Leu-A2Pr(DNP)-Ala-Arg-NH2. Here is the method: (§7) In regard to MMP-12, catalytic domain(^100Phe˜^263Gly) was amplified with RT-PCR from Human Placenta Total RNA. This was cloned in Escherichia. coli expression vector pTrc99AHE inserted with His-tag sequence and enterokinase digestion-site, induced and expressed by IPTG (Isopropyl-β-D-thiogalactopyranoside) and expressed in a insoluble fraction. Isolation of MMP-12 from an insoluble fraction was carried out by dissolving in modifier (6M urea) by a usual method and purification with metal chelate chromatography (Ni Chelateing Sepharose). And then removing modifier (6M urea) with dialysis and refolding of the enzyme spontaneously gave activated MMP-12.
as §1, §2, §3, §4, §5, §6

The target of the next experiment is T5, MMP-13 (Homo sapiens, UniProt P45452).
T5 construct: catalytic domain (^104Tyr˜^267Gly) was amplified with RT-PCR; His-tag; enterokinase digestion-site; made in house; host or cells: Escherichia coli
The experiment can be described thus: Assay for inhibitory activities on MMPs (fluorogenic peptide substrate), MMP-13. As to conditions: catalytic domain 104Tyr-267Gly; substrate MOCAc-Pro-Leu-Gly-Leu-A2Pr(DNP)-Ala-Arg-NH2. Here is the method: as §7, with “MMP-13, mRNA was prepared from carcinoma cell SW1353 derived from human cartilage stimulate by IL-1, TNF and” for “MMP-12,”, “domain (^104Tyr˜^267Gly)” for “domain(^100Phe˜^263Gly)”, “RT-PCR.” for “RT-PCR from Human Placenta Total RNA.”, “MMP-13” for “MMP-12”, “dialyze” for “dialysis”, “MMP-13.” for “MMP-12.”
as §1, §2, §3, §4, §5, §6

Take `O=C(O)[C@H](Cc1ccccc1)NS(=O)(=O)c1ccc(-c2ncc(-c3ccccc3)s2)cc1` [Compound B-12]: the IC50 (commonly the midpoint of a concentration-inhibition curve) on MMP-2 worked out at 1.44 nM; on MMP-8, 25.9 nM; at MMP-9 it was 66.9 nM; against MMP-12, 3.69 nM; at MMP-13, 9.3 nM.
The matching figures for `C[C@@H](NS(=O)(=O)c1ccc(-c2ncc(-c3ccc(Cl)cc3)s2)cc1)C(=O)O` [Compound B-25]: 0.484 nM, 51.7 nM, 5.69 nM, 0.949 nM and 4.82 nM.
For `C[C@@H](NS(=O)(=O)c1ccc(-c2ncc(-c3ccc(F)cc3)o2)cc1)C(=O)O` [Compound A-6], the concentration for half-maximal inhibition (IC50) at MMP-2 is 9.71 nM; against MMP-8, 233 nM; at MMP-9, 368 nM; at MMP-12, 12.5 nM; at MMP-13 it was 234 nM.
The corresponding values for `CC(C)C[C@@H](NS(=O)(=O)c1ccc(-c2ncc(-c3ccc(Cl)cc3)s2)cc1)C(=O)O` [Compound B-31] are 3.57 nM, 144 nM, 35.7 nM, 4.55 nM and 32.6 nM.
For the compound `CC(C)[C@@H](NS(=O)(=O)c1ccc(-c2ncc(-c3ccc4ccccc4c3)o2)cc1)C(=O)O` [Compound A-50], the IC50 is 4.86 nM on MMP-2; 146 nM on MMP-8; 88.6 nM at MMP-9; 0.699 nM against MMP-12; 11.9 nM at MMP-13.
`O=C(O)[C@@H](Cc1ccccc1)NS(=O)(=O)c1ccc(-c2ncc(-c3ccc(F)cc3)o2)cc1` [Compound A-19]: the IC50 on MMP-2 came out at 14.4 nM; against MMP-8 it was 113 nM; at MMP-9, 247 nM; at MMP-12 it was 7.71 nM; on MMP-13 it was 113 nM.
For the compound `CC(C)[C@@H](NS(=O)(=O)c1ccc(-c2ncc(-c3ccc(Br)cc3)s2)cc1)C(=O)O` [Compound B-10], the IC50 on MMP-2 was 0.373 nM; against MMP-8, 31.7 nM; at MMP-9, 3.96 nM; at MMP-12, 0.643 nM; against MMP-13, 3.38 nM.
The matching figures for `CC(C)[C@H](NS(=O)(=O)c1ccc(-c2ncc(-c3ccc(Cl)cc3)o2)cc1)C(=O)O` [Compound A-24]: 670 nM, 337 nM, 2370 nM, 10 nM and 678 nM.
As to `CC(C)[C@@H](NS(=O)(=O)c1ccc(-c2ncc(-c3ccc(F)cc3)s2)cc1)C(=O)O` [Compound B-8], the IC50 against MMP-2 was 1.38 nM; at MMP-8, 10.5 nM; on MMP-9 it was 11.1 nM; on MMP-12 it was 1.96 nM; on MMP-13, 9.53 nM.
As for `CC(C)[C@H](NS(=O)(=O)c1ccc(-c2ncc(-c3ccc(F)cc3)o2)cc1)C(=O)O` [Compound A-26], the 50% inhibitory concentration (IC50) was 514 nM on MMP-2, 569 nM against MMP-8, 1810 nM at MMP-9 and 40.2 nM against MMP-12.
Turning to `O=C(O)CNS(=O)(=O)c1ccc(-c2ncc(-c3ccc(Cl)cc3)s2)cc1` [Compound B-52], the IC50 against MMP-2 turned out to be 2.5 nM; against MMP-8, 453 nM; on MMP-9, 34.7 nM; against MMP-12, 5.55 nM; against MMP-13, 29.5 nM.
Regarding `COc1ccc(-c2cnc(-c3ccc(S(=O)(=O)N[C@@H](C(=O)O)C(C)C)cc3)s2)cc1` [Compound B-6], the IC50 came to 0.347 nM on MMP-2; 6.47 nM on MMP-8; 10 nM on MMP-9; 0.37 nM on MMP-12; 1.16 nM against MMP-13.
The corresponding values for `O=C(O)[C@@H](Cc1ccccc1)NS(=O)(=O)c1ccc(-c2ncc(-c3ccccc3)s2)cc1` [Compound B-11] are 1.08 nM, 26.1 nM, 16.2 nM, 2.4 nM and 6.34 nM.
For `CSCC[C@@H](NS(=O)(=O)c1ccc(-c2ncc(-c3ccc(Cl)cc3)o2)cc1)C(=O)O` [Compound A-36], the IC50 on MMP-2 came out at 16.3 nM; on MMP-8, 127 nM; on MMP-9, 226 nM; against MMP-12, 2.98 nM; against MMP-13 it was 140 nM.
Take `O=C(O)[C@H](Cc1ccccc1)NS(=O)(=O)c1ccc(-c2ncc(-c3ccc(Cl)cc3)o2)cc1` [Compound A-16]: the IC50 turned out to be 265 nM against MMP-2, 758 nM on MMP-9, 26.2 nM at MMP-12 and 774 nM on MMP-13.
In turn, `C[C@H](NS(=O)(=O)c1ccc(-c2ncc(-c3ccc(Cl)cc3)o2)cc1)C(=O)O` [Compound A-5] yielded an IC50 against MMP-12 of 28.4 nM.
